From the supplement of paper PMC4449167
± gives the standard deviation of the averaged measurements.

Tested on: WB-F344
Assay: gap junctional intercellular communication (dye spread) relative to vehicle control (fraction of control); higher = more gap junction communication (less inhibition)
Description: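 Confluent WB-F344 rat liver epithelial cells were pretreated with vehicle, D609 (PC-PLC inhibitor, 50 µM, 20 min), U0126 (MEK1/2 inhibitor, 20 µM, 30 min) or resveratrol (100 µM, 15 min), then exposed to a GJIC-dysregulating chemical at the listed dose and time. GJIC was measured by scalpel loading-dye transfer with Lucifer Yellow (3 min), and the dye-spread area was quantified in ImageJ as a fraction of the vehicle control (FOC). Individual values come from at least 3 independent experiments.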

[1] = pretreatment: D609+GJIC dysreg.
[2] = pretreatment: U0126+GJIC dysreg.
[3] = dose note: (70 uM), pretreatment: D609+GJIC dysreg.
[4] = dose note: (70 uM), pretreatment: GJIC dysreg.
[5] = dose note: (70 uM), pretreatment: RES+GJIC dysreg.
[6] = dose note: (70 uM), pretreatment: U0126+GJIC dysreg.
[7] = dose note: (100 uM), pretreatment: D609+GJIC dysreg.
[8] = dose note: (100 uM), pretreatment: GJIC dysreg.
[9] = dose note: (100 uM), pretreatment: RES+GJIC dysreg.
[10] = dose note: (100 uM), pretreatment: U0126+GJIC dysreg.

## Cc1nc2sccn2c(=O)c1CCN1CCC(=C(c2ccccc2)c2ccc(F)cc2)CC1 (compound abbreviation / co-treatment: R59022, exposure (dose, time): 30-50 µM, 10 min)
[1]
  gap junctional intercellular communication: 0.848 ± 0.081
pretreatment: GJIC dysreg.
  gap junctional intercellular communication: 0.344 ± 0.13
pretreatment: RES+GJIC dysreg.
  gap junctional intercellular communication: 0.867 ± 0.16
[2]
  gap junctional intercellular communication: 0.641 ± 0.11

## Clc1ccc(C(c2ccccc2Cl)C(Cl)(Cl)Cl)cc1 (stereo not drawn) [1,1,1-Trichloro-2-(2-chlorophenyl)-2-(4-chlorophenyl)ethane] (compound abbreviation / co-treatment: DDT, exposure (dose, time): 30 µM,  20 min)
[1]
  gap junctional intercellular communication: 0.832 ± 0.089
pretreatment: GJIC dysreg.
  gap junctional intercellular communication: 0.308 ± 0.053
pretreatment: RES+GJIC dysreg.
  gap junctional intercellular communication: 0.777 ± 0.025
[2]
  gap junctional intercellular communication: 0.337 ± 0.082

## Cc1cccc2cc3ccccc3cc12 [1-Methylanthracene] (compound abbreviation / co-treatment: 1-MeA, exposure (dose, time): 70 µM, 10 min)
[1]
  gap junctional intercellular communication: 0.872 ± 0.094
pretreatment: GJIC dysreg.
  gap junctional intercellular communication: 0.278 ± 0.066
pretreatment: RES+GJIC dysreg.
  gap junctional intercellular communication: 0.818 ± 0.14
[2]
  gap junctional intercellular communication: 0.262 ± 0.067

## Cc1cccc2c1Cc1ccccc1-2 [1-Methylfluoren] (compound abbreviation / co-treatment: 1-MeFlu, exposure (dose, time): 70 µM, 10 min)
[1]
  gap junctional intercellular communication: 0.84 ± 0.13
pretreatment: GJIC dysreg.
  gap junctional intercellular communication: 0.266 ± 0.076
pretreatment: RES+GJIC dysreg.
  gap junctional intercellular communication: 1 ± 0.17
[2]
  gap junctional intercellular communication: 0.318 ± 0.052

## Cc1ccc2ccc3cccc4ccc1c2c34 [1-Methylpyrene] (compound abbreviation / co-treatment: 1-MePyr, exposure (dose, time): 70 µM, 10 min)
[1]
  gap junctional intercellular communication: 0.956 ± 0.048
pretreatment: GJIC dysreg.
  gap junctional intercellular communication: 0.397 ± 0.072
pretreatment: RES+GJIC dysreg.
  gap junctional intercellular communication: 0.815 ± 0.15
[2]
  gap junctional intercellular communication: 0.345 ± 0.094

## CCCCCCCCCCCC(=O)OCC(O)CO (stereo not drawn) [1-Monolaurin] (compound abbreviation / co-treatment: Lau, exposure (dose, time): 150 µM, 10 min)
[1]
  gap junctional intercellular communication: 0.245 ± 0.028
pretreatment: GJIC dysreg.
  gap junctional intercellular communication: 0.229 ± 0.026
pretreatment: RES+GJIC dysreg.
  gap junctional intercellular communication: 0.245 ± 0.034
[2]
  gap junctional intercellular communication: 0.234 ± 0.034

## Clc1cc(Cl)c(-c2cc(Cl)c(Cl)cc2Cl)cc1Cl [2,2',4,4',5,5'-Hexachlorobiphenyl] (compound abbreviation / co-treatment: PCB 153, exposure (dose, time): 50 µM, 30 min)
[1]
  gap junctional intercellular communication: 0.781 ± 0.17
pretreatment: GJIC dysreg.
  gap junctional intercellular communication: 0.353 ± 0.093
pretreatment: RES+GJIC dysreg.
  gap junctional intercellular communication: 0.857 ± 0.11
[2]
  gap junctional intercellular communication: 0.278 ± 0.083

## Cc1c2ccccc2c(C)c2ccccc12 [9,10-Dimethylanthracene] (compound abbreviation / co-treatment: 9,10-DiMeA, exposure (dose, time): 70-100 µM, 10 min)
[3]
  gap junctional intercellular communication: 0.888 ± 0.038
[4]
  gap junctional intercellular communication: 0.213 ± 0.06
[5]
  gap junctional intercellular communication: 0.744 ± 0.14
[6]
  gap junctional intercellular communication: 0.342
[7]
  gap junctional intercellular communication: 0.937 ± 0.033
[8]
  gap junctional intercellular communication: 0.317 ± 0.041
[9]
  gap junctional intercellular communication: 0.871 ± 0.15
[10]
  gap junctional intercellular communication: 0.356 ± 0.096

## CCCCCCCCCCCCCC(=O)O[C@@H]1[C@@H](C)[C@@]2(O)[C@@H](C=C(CO)C[C@]3(O)C(=O)C(C)=C[C@@H]23)[C@@H]2C(C)(C)[C@]12OC(C)=O [12-O-tetradecanoylphorbol-13-acetate] (compound abbreviation / co-treatment: TPA, exposure (dose, time): 10 nM, 30 min)
[1]
  gap junctional intercellular communication: 0.309 ± 0.077
pretreatment: GJIC dysreg.
  gap junctional intercellular communication: 0.202 ± 0.031
pretreatment: RES+GJIC dysreg.
  gap junctional intercellular communication: 1.05 ± 0.13
[2]
  gap junctional intercellular communication: 0.967 ± 0.092

## CCc1cccc(CC)c1N(COC)C(=O)CCl [Alachlor] (compound abbreviation / co-treatment: Alachlor, exposure (dose, time): 185 µM, 25 min)
[1]
  gap junctional intercellular communication: 0.285 ± 0.08
pretreatment: GJIC dysreg.
  gap junctional intercellular communication: 0.259 ± 0.072
pretreatment: RES+GJIC dysreg.
  gap junctional intercellular communication: 0.789 ± 0.14
[2]
  gap junctional intercellular communication: 0.356 ± 0.12

## CCCCC/C=C\C/C=C\C/C=C\C/C=C\CCCC(=O)O [Arachidonic acid] (compound abbreviation / co-treatment: AA, exposure (dose, time): 70-100 µM, 15 min)
[3]
  gap junctional intercellular communication: 0.164
[4]
  gap junctional intercellular communication: 0.196
[5]
  gap junctional intercellular communication: 0.193
[6]
  gap junctional intercellular communication: 0.244
Dose note: (75 uM), pretreatment: D609+GJIC dysreg.
  gap junctional intercellular communication: 0.2
Dose note: (75 uM), pretreatment: GJIC dysreg.
  gap junctional intercellular communication: 0.2
Dose note: (75 uM), pretreatment: RES+GJIC dysreg.
  gap junctional intercellular communication: 0.207
Dose note: (75 uM), pretreatment: U0126+GJIC dysreg.
  gap junctional intercellular communication: 0.216
Dose note: (90 uM), pretreatment: D609+GJIC dysreg.
  gap junctional intercellular communication: 0.29 ± 0.055
Dose note: (90 uM), pretreatment: GJIC dysreg.
  gap junctional intercellular communication: 0.279 ± 0.058
Dose note: (90 uM), pretreatment: RES+GJIC dysreg.
  gap junctional intercellular communication: 0.25 ± 0.032
Dose note: (90 uM), pretreatment: U0126+GJIC dysreg.
  gap junctional intercellular communication: 0.347 ± 0.025
[7]
  gap junctional intercellular communication: 0.196
[8]
  gap junctional intercellular communication: 0.193
[9]
  gap junctional intercellular communication: 0.189
[10]
  gap junctional intercellular communication: 0.199

## O=C(OOC(=O)c1ccccc1)c1ccccc1 [Benzoylperoxide] (compound abbreviation / co-treatment: BzOOH, exposure (dose, time): 200 µM, 15 min)
[1]
  gap junctional intercellular communication: 0.373 ± 0.057
pretreatment: GJIC dysreg.
  gap junctional intercellular communication: 0.368 ± 0.085
pretreatment: RES+GJIC dysreg.
  gap junctional intercellular communication: 0.313 ± 0.084
[2]
  gap junctional intercellular communication: 0.33 ± 0.14

## CC(C)(OOC(C)(C)c1ccccc1)c1ccccc1 [Dicumylperoxide] (compound abbreviation / co-treatment: DiCuOOH, exposure (dose, time): 50 µM, 15 min)
[1]
  gap junctional intercellular communication: 0.884 ± 0.058
pretreatment: GJIC dysreg.
  gap junctional intercellular communication: 0.386 ± 0.088
pretreatment: RES+GJIC dysreg.
  gap junctional intercellular communication: 0.829 ± 0.081
[2]
  gap junctional intercellular communication: 0.324 ± 0.11

## c1ccc2c(c1)-c1cccc3cccc-2c13 [Fluoranthene] (compound abbreviation / co-treatment: Fla, exposure (dose, time): 70 µM, 10 min)
[1]
  gap junctional intercellular communication: 0.718 ± 0.11
pretreatment: GJIC dysreg.
  gap junctional intercellular communication: 0.245 ± 0.064
pretreatment: RES+GJIC dysreg.
  gap junctional intercellular communication: 0.937 ± 0.23
[2]
  gap junctional intercellular communication: 0.285 ± 0.091

## c1ccc2c(c1)Cc1ccccc1-2 [Fluoren] (compound abbreviation / co-treatment: Flu, exposure (dose, time): 100 µM, 10 min)
[1]
  gap junctional intercellular communication: 0.884 ± 0.12
pretreatment: GJIC dysreg.
  gap junctional intercellular communication: 0.253 ± 0.034
pretreatment: RES+GJIC dysreg.
  gap junctional intercellular communication: 0.848 ± 0.12
[2]
  gap junctional intercellular communication: 0.309 ± 0.013

## Cl[C@H]1[C@H](Cl)[C@@H](Cl)[C@@H](Cl)[C@H](Cl)[C@H]1Cl [Lindane] (compound abbreviation / co-treatment: Lindane, exposure (dose, time): 60 µM, 25 min)
[1]
  gap junctional intercellular communication: 0.335 ± 0.046
pretreatment: GJIC dysreg.
  gap junctional intercellular communication: 0.282 ± 0.062
pretreatment: RES+GJIC dysreg.
  gap junctional intercellular communication: 0.741 ± 0.048
[2]
  gap junctional intercellular communication: 0.695 ± 0.16

## Oc1c(Cl)c(Cl)c(Cl)c(Cl)c1Cl [Pentachlorophenol] (compound abbreviation / co-treatment: PCP, exposure (dose, time): 50 µM, 10 min)
[1]
  gap junctional intercellular communication: 0.335 ± 0.068
pretreatment: GJIC dysreg.
  gap junctional intercellular communication: 0.282 ± 0.055
pretreatment: RES+GJIC dysreg.
  gap junctional intercellular communication: 0.387 ± 0.14
[2]
  gap junctional intercellular communication: 0.336 ± 0.023

## O=C(O)C(F)(F)C(F)(F)C(F)(F)C(F)(F)C(F)(F)C(F)(F)C(F)(F)C(F)(F)C(F)(F)F [Perfluorodecanoic acid] (compound abbreviation / co-treatment: PFDA, exposure (dose, time): 50 µM, 20 min)
[1]
  gap junctional intercellular communication: 0.46 ± 0.12
pretreatment: GJIC dysreg.
  gap junctional intercellular communication: 0.22 ± 0.033
pretreatment: RES+GJIC dysreg.
  gap junctional intercellular communication: 0.225 ± 0.023
[2]
  gap junctional intercellular communication: 0.239 ± 0.046
